Structures are written as SMILES. Where two headings read alike, the source gives them in different places.

This test has as its system Dd2 strain of P. falciparum. Nature of the test: Activity against the Dd2 strain of P. falciparum (SYBR Green I, 72-h incubation). Format: cell-based. Particulars: read-out: EC^50 Dd2. The procedure: The Dd2 strain of P. falciparum was cultured in complete medium (RPMI with L-glutamine, 4.3% heat-inactivated O-positive human serum, 2.08 mg/ml albumax, 0.013 mg/ml hypoxanthine, 1.17 mg/ml glucose, 0.18% NaHCO3, 0.031 M Hepes, 2.60 mM NaOH, and 0.043 mg/ml gentamicin) until the parasitemia reached 3-8%. Parasitemia was determined by checking at least 500 red blood cells from a Giemsa-stained blood smear. The Dd2 cultures along with tested O-positive red blood cells are centrifuged at room temperature at 2,000 rpm for 5 min using an Eppendorf centrifuge 581 OR with an A-4-81 rotor. The medium was aspirated off. For the compound screening, a parasite dilution at a 1% parasitemia and 1.0% hematocrit was created with screening medium (RPMI with L-glutamine, 4.16 mg/ml albumax II, 0.013 mg/ml hypoxanthine, 1.73 mg/ml glucose, 0.18% NaHCO3, 0.031M Hepes, 2.60 mM NaOH, and 0.043 mg/ml gentamicin). The suspension was gassed with 93% nitrogen, 4% carbon dioxide, and 3% oxygen and placed at 37° C. until needed. Using a liquid dispenser, 20 μl of screening medium was dispensed into 384-well, black, clear-bottom plates. With a PinTool, 100 nl of compounds dissolved in DMSO was transferred into the assay plates along with control compound (mefloquine). Next, 30 μl of the parasite suspension in screening medium was then dispensed into the assay plates such that the final parasitemia was 1%, and the final hematocrit was 1.0%. Final concentration of DMSO was 0.125%. Mefloquine at a final concentration of 20 μM and DMSO at a final concentration of 0.125% were used within the assay plates to serve as background and baseline controls, respectively. The assay plates were transferred to incubators (93% nitrogen, 4% carbon dioxide, and 3% oxygen during the 72-h incubation at 37° C.). Ten microliters of detection reagent consisting of 1 OX SYBR Green I (Invitrogen; supplied in 10,000× concentration) in lysis buffer (20 mM Tris-HCl, 5 mM EDTA, 0.16% Saponin wt/vol, 1.6% Triton X vol/vol) was dispensed into the assay plates. For optimal staining, the assay plates were left at room temperature for 24 h in the dark. The assay plates were read by using an Envision (PerkinElmer) reader, with 505 dichroic mirrors with 485-nm excitation and 530-nm emission settings, and the plate reads were from the bottom.

Where [1] appears, read: Plasmodium falciparum, DD2, 72 h.

With `COc1ccc2c3c([nH]c2c1)[C@H](CO)NCC31CCN(C(=O)Nc2ccccc2F)CC1` [Compound 26, (R)-N-(2-fluorophenyl)-1′-(hydroxymethyl)-7′-methoxy-1′,2′,3′,9′-tetrahydrospiro [piperidine-4,4′-pyrido[3,4-b]indole]-1-carboxamide], under setting [1], the EC50 is 1330 nM.
Regarding `COc1ccc2c3c([nH]c2c1)[C@H](CO)N(C(C)=O)CC31CCN(CCc2ccccc2F)CC1` [Compound 27, (R)-1-(1-(2-fluorophenethyl)-1′-(hydroxymethyl)-7′-methoxyspiro[piperidine-4,4′-pyrido[3,4-b]indol]-2′(1′H,3′H,9′H)-yl) ethanone], the EC50 under setting [1] was determined as 2730 nM.
On to `C=CCOC(=O)N1CC2(CCN(C(=O)Oc3ccc([N+](=O)[O-])cc3)CC2)c2c([nH]c3cc(OC)ccc23)[C@@H]1CO` [Compound 28, (R)-2′-allyl 1-(4-nitrophenyl) 1′-(hydroxymethyl)-7′-methoxy-3′,9′-dihydrospiro[piperidine-4,4′-pyrido[3,4-b]indole]-1,2′(1′H)-dicarboxylate], for which the EC50 under setting [1] was 7140 nM.
As to `COc1ccc2c3c([nH]c2c1)[C@H](CO[Si](C)(C)C(C)(C)C)N(C(C)=O)CC31CCN(C(=O)OC(C)(C)C)CC1` [Compound 29, (R)-tert-butyl 2′-acetyl-1′-(((tert-butyldimethylsilyl)oxy)methyl)-7′-methoxy-1′,2′,3′,9′-tetrahydrospiro[piperidine-4,4′-pyrido[3,4-b]indole]-1-carboxylate], the EC50 came out at 1390 nM.
For the compound `COc1ccc2c3c([nH]c2c1)[C@H](C)NCC31CCN(C(=O)OC(C)(C)C)CC1` [Compound 30, (S)-tert-butyl 7′-methoxy-1′-methyl-1′,2′,3′,9′-tetrahydrospiro[piperidine-4,4′-pyrido[3,4-b]indole]-1-carboxylate], the EC50 under setting [1] came out at 7440 nM.
Still for that read-out and setting: to `COc1ccc2c3c([nH]c2c1)[C@H](CN(C)C)N(C(C)=O)CC31CCN(C(=O)Nc2ccccc2F)CC1` [Compound 32, (S)-2′-acetyl-1′-((dimethylamino)methyl)-N-(2-fluoropheny1)-7′-methoxy-1′,2′,3′,9′-tetrahydrospiro[piperidine-4,4′-pyrido[3,4-b]indole]-1-carboxamide] belongs 485 nM; to `COc1ccc2c3c([nH]c2c1)[C@H](CO)N(C(=O)C1CC1)CC31CCN(C(=O)Nc2ccccc2F)CC1` [Compound 33, (R)-2′-(cyclopropanecarbonyl)-N-(2-fluorophenyl)-1′-(hydroxymethyl)-7′-methoxy-1′,2′,3′,9′-tetrahydrospiro[piperidine-4,4′-pyrido[3,4-b]indole]-1-carboxamide], 2980 nM.
For `COc1ccc2c3c([nH]c2c1)[C@H](C)N(C(C)=O)CC31CCN(C(=O)OC(C)(C)C)CC1` [Compound 34, (S)-tert-butyl 2′-acetyl-7′-methoxy-1′-methyl-1′,2′,3′,9′-tetrahydrospiro[piperidine-4,4′-pyrido[3,4-b]indole]-1-carboxylate], the EC50 under setting [1] worked out at 3770 nM.
Take `COc1ccc2c3c([nH]c2c1)[C@H](CO)N(C(C)=O)CC31CCN(C(=O)Nc2ccccc2)CC1` [Compound 35, (R)-2′-acetyl-1′-(hydroxymethyl)-7′-methoxy-N-phenyl-1′,2′,3′,9′-tetrahydrospiro[piperidine-4,4′-pyrido[3,4-b]indole]-1-carboxamide]: the EC50 under setting [1] fell in the range of 175 to 410 nM.
`CCCC(=O)N1CC2(CCN(C(=O)Nc3ccccc3F)CC2)c2c([nH]c3cc(OC)ccc23)[C@@H]1CO` [Compound 36, (R)-2′-butyryl-N-(2-fluorophenyl)-1′-(hydroxymethyl)-7′-methoxy-1′,2′,3′,9′-tetrahydrospiro[piperidine-4,4′-pyrido[3,4-b]indole]-1-carboxamide]: the EC50 under setting [1] was 423 nM.
In the case of `COc1ccc2c3c([nH]c2c1)[C@H](CO)N(C(C)=O)CC31CCN(C(=O)Nc2cccc(F)c2)CC1` [Compound 37, (R)-2′-acetyl-N-(3-fluorophenyl)-1′-(hydroxymethyl)-7′-methoxy-1′,2′,3′,9′-tetrahydrospiro[piperidine-4,4′-pyrido[3,4-b]indole]-1-carboxamide], under setting [1], the EC50 is 577 nM.
Still for that read-out and setting: the result for `COc1ccc2c3c([nH]c2c1)[C@H](CO[Si](C)(C)C(C)(C)C)N(C(C)=O)CC31CCN(Cc2ccccc2F)CC1` [Compound 38, (R)-1-(1′-(((tert-butyldimethylsilyl)oxy)methyl)-1-(2-fluorobenzyl)-7′-methoxyspiro[piperidine-4,4′-pyrido[3,4-b]indol]-2′(1′H,3′H,9′H)-yl)ethanone] reads 809 nM.
Same read-out and setting: to `COc1ccc2c3c([nH]c2c1)[C@H](CO)N(C(C)=O)CC31CCN(C(=O)Cc2ccccc2F)CC1` [Compound 39] belongs 752 nM; to `COc1ccc2c3c([nH]c2c1)[C@H](CO[Si](C)(C)C(C)(C)C)NCC31CCN(C(=O)Nc2ccccc2F)CC1` [Compound 40, (R)-1′-(((tert-butyldimethylsilyl)oxy)methyl)-N-(2-fluorophenyl)-7′-methoxy-1′,2′,3′,9′-tetrahydrospiro[piperidine-4,4′-pyrido[3,4-b]indole]-1-carboxamide], 1220 nM; to `COc1ccc2c3c([nH]c2c1)[C@H](CO)N(C(C)=O)CC31CCN(C(=O)c2ccccc2F)CC1` [Compound 41, (R)-1-(1-(2-fluorobenzoyl)-1′-(hydroxymethyl)-7′-methoxyspiro[piperidine-4,4′-pyrido[3,4-b]indol]-2′(1′H,3′H,9′H)-yl)ethanone], 17500 nM.
Take `COc1ccc2c3c([nH]c2c1)[C@H](CO)N(CCc1ccccc1)CC31CCN(C(=O)Nc2ccccc2F)CC1` [Compound 42, (R)-N-(2-fluorophenyl)-1′-(hydroxymethyl)-7′-methoxy-2′-phenethyl-1′,2′,3′,9′-tetrahydrospiro[piperidine-4,4′-pyrido[3,4-b]indole]-1-carboxamide]: under setting [1], the EC50 lay within 1750 to 1900 nM.
`COc1ccc2c3c([nH]c2c1)[C@H](CO)N(C(C)=O)CC31CCN(C(=O)NC2CCCCC2)CC1` [Compound 43, (R)-2′-acetyl-N-cyclohexy1-1′-(hydroxymethyl)-7′-methoxy-1′,2′,3′,9′-tetrahydrospiro[piperidine-4,4′-pyrido[3,4-b]indole]-1-carboxamide]: the EC50 under setting [1] was 3370 to 5220 nM.
Take `COc1ccc2c3c([nH]c2c1)[C@H](CO)N(C(C)=O)CC31CCN(S(=O)(=O)Cc2ccccc2F)CC1` [Compound 44, (R)-1-(1-((2-fluorobenzyl)sulfonyl)-1′-(hydroxymethyl)-7′-methoxyspiro[piperidine-4,4′-pyrido[3,4-b]indol]-2′(1′H,3′H,9′H)-yl)ethanone]: the EC50 under setting [1] fell in the range of 1600 to 3280 nM.
On the same count and under the same terms, to `COc1ccc2c3c([nH]c2c1)[C@H](CO)N(C(C)=O)CC31CCN(C(=O)Nc2cccc(F)c2F)CC1` [Compound 45, (R)-2′-acetyl-N-(2,3-difluorophenyl)-1′-(hydroxymethyl)-7′-methoxy-1′,2′,3′,9′-tetrahydrospiro[piperidine-4,4′-pyrido[3,4-b]indole]-1-carboxamide] belongs 44 to 131 nM; to `COc1ccc2c3c([nH]c2c1)[C@H](CN1CCOCC1)N(C(C)=O)CC31CCN(C(=O)OC(C)(C)C)CC1` [Compound 46, (S)-tert-butyl 2′-acetyl-7′-methoxy-1′-(morpholinomethyl)-1′,2′,3′,9′-tetrahydrospiro[piperidine-4,4′-pyrido[3,4-b]indole]-1-carboxylate], 2430 to 6330 nM; to `COc1ccc2c3c([nH]c2c1)[C@@H]1COCC(=O)N1CC31CCN(C(=O)Nc2ccccc2F)CC1` [Compound 47, (R)-N-(2-fluorophenyl)-10-methoxy-4-oxo-1,3,4,6,12,12b-hexahydrospiro[[1,4]oxazino[4′,3′:1 ,2]pyrido[3,4-b]indole-7,4′-piperidine]-1′-carboxamide], 2230 to 3230 nM.
As to `COc1ccc2c3c([nH]c2c1)[C@H](C)N(C(C)=O)CC31CCN(C(=O)Nc2ccccc2F)CC1` [Compound 48, (S)-2-acetyl-N-(2-fluorophenyl)-7′-methoxy-1'-methyl-1′,2′,3′,9′-tetrahydrospiro[piperidine-4,4′-pyrido[3,4-b]indole]-1-carboxamide], under setting [1], the EC50 fell in the range of 214 to 236 nM.
For the compound `CCCN1CC2(CCN(C(=O)Nc3ccccc3F)CC2)c2c([nH]c3cc(OC)ccc23)[C@@H]1CO` [Compound 49, (R)-N-(2-fluorophenyl)-1′-(hydroxymethyl)-7′-methoxy-2′-propyl-1′,2′,3′,9′-tetrahydrospiro[piperidine-4,4′-pyrido[3,4-b]indole]-1-carboxamide], the EC50 under setting [1] was in the range of 2390 to 2920 nM.

These data come from patent US9428507B2, “Compounds for the treatment of malaria” (The Broad Institute, Inc., priority 2013, dated 2016).
